Results as given in US10980813B2, “Antifungal composition” (SEED RESEARCH INSTITUTE CO., LTD., priority 2017, dated 2021).
Values after ≈ are worked out from the molar mass of the structure shown.

Assays:
Assay in all cases: Antifungal activity, MIC by disc (diffusion) method
C. parapsilosis = type: cell-based, Candida parapsilosis; conditions: Lodderomyces parapsilosis, YMG agar, 24 hr at 28° C., read-out: MIC (minimum inhibitory concentration) C. parapsilosis
Procedure: (§1) Measurement Method of Antifungal Activity in Various Compounds
(§2) The minimum inhibitory concentration (MIC) was measured by a disc method (diffusion method). The disc method is one kind of the diffusion method, and is a method in which filter paper (disc) impregnated with an antifungal substance at a given concentration is placed on an agar medium (test plate) coated with a test bacterium and cultivated. The disc absorbs water in the medium, diffuses the antifungal substance and forms a given concentration gradient. As a result, the test bacterium forms a growth inhibition zone (circle) in the periphery of the disc, and the level of sensitivity to the antifungal substance is determined from the diameter of the inhibition circle.
(§3) Using the aforementioned method, MIC of various compounds was measured.
(§4) i: In a 100 mL flask, 20 mL of YMG or Mueller Hinton medium is produced.
(§5) ii: A loopful of the test bacterium is dissolved in the medium.
(§6) iii: The medium is cultured at 200 rpm for 24 hr in a rotary shaker set to 28° C.
(§7) i: In a 300 mL flask, 100 mL of YMG or Mueller Hinton agar medium (low melting point agar) is produced.
(§8) ii: After cooling to 37° C.-40° C., preculture medium (1 mL) is added and the mixture is agitated.
(§9) iii: The mixture is dispensed to a square petri dish (size: 100*150*17 mm) by 20 mL each.
(§10) iv: The dish is stood at room temperature until the agar is solidified.
(§11) i: The compound is diluted in ½ dilution series in 10 stages (timely changed according to compound), 50 μL of solution/pulp at each dilution stage is produced, the organic solvent is dried at room temperature and placed on a test plate.
(§12) ii: After culturing T. rubrum for 48 hr and other test bacteria for 24 hr at 28° C. in an incubator, the size of the inhibition circle was measured.
(§13) The medium composition for culture which was used for the aforementioned preculture is shown below.
(§14) [Medium Compositions for Preculture and Test Plate]
(§15) <<YMG Medium>>: For Fungus
(§16) Agar, powder 0.8% * added only when producing test plate

A. fumigatus = type: cell-based; conditions: Aspergillus fumigatus, YMG agar, 24 hr at 28° C., read-out: MIC (minimum inhibitory concentration) A. fumigatus
Procedure: as §1, §2, §3, §4, §5, §6, §7, §8, §9, §10, §11, §12, §13, §14, §15, §16

T. mentagrophytes = type: cell-based; conditions: Trichophyton mentagrophytes, YMG agar, 24 hr at 28° C., read-out: MIC (minimum inhibitory concentration) T. mentagrophytes
Procedure: as §1, §2, §3, §4, §5, §6, §7, §8, §9, §10, §11, §12, §13, §14, §15, §16

Saccharomyces = type: cell-based; conditions: YMG agar, 24 hr at 28° C., read-out: MIC (minimum inhibitory concentration) Saccharomyces
Procedure: as §1, §2, §3, §4, §5, §6, §7, §8, §9, §10, §11, §12, §13, §14, §15, §16

T. rubrum = type: cell-based; conditions: Trichophyton rubrum, YMG agar, 48 hr at 28° C., read-out: MIC (minimum inhibitory concentration) T. rubrum
Procedure: as §1, §2, §3, §4, §5, §6, §7, §8, §9, §10, §11, §12, §13, §14, §15, §16

Compound	MIC (C. parapsilosis)	MIC (A. fumigatus)	MIC (T. mentagrophytes)	MIC (Saccharomyces)	MIC (T. rubrum)
CC1=CC(C)=NS(=O)(=O)N1 [I-2b]	16 µg/mL (≈ 99.9 µM)	16 µg/mL (≈ 99.9 µM)	2 µg/mL (≈ 12.5 µM)	16 µg/mL (≈ 99.9 µM)	2 µg/mL (≈ 12.5 µM)
O=S1(=O)N=C(CCc2ccc(Cl)cc2)C2ON21 (stereo not drawn) [II-4d]	8 µg/mL (≈ 29.3 µM)	8 µg/mL (≈ 29.3 µM)	2 µg/mL (≈ 7.33 µM)	8 µg/mL (≈ 29.3 µM)	2 µg/mL (≈ 7.33 µM)
O=S1(=O)Oc2c(Cl)cc(Cl)cc2C2ON21 (stereo not drawn) [II-1h]	4 µg/mL (≈ 14.9 µM)	4 µg/mL (≈ 14.9 µM)	1 µg/mL (≈ 3.73 µM)	4 µg/mL (≈ 14.9 µM)	1 µg/mL (≈ 3.73 µM)
CC1=NS(=O)(=O)Nc2ccccc21 [I-1k]	8 µg/mL (≈ 40.8 µM)	8 µg/mL (≈ 40.8 µM)	2 µg/mL (≈ 10.2 µM)	8 µg/mL (≈ 40.8 µM)	2 µg/mL (≈ 10.2 µM)
O=S1(=O)Nc2ccc(Cl)cc2C2(c3ccccc3)ON21 (stereo not drawn) [II-1l]	8 µg/mL (≈ 25.9 µM)	8 µg/mL (≈ 25.9 µM)	2 µg/mL (≈ 6.48 µM)	8 µg/mL (≈ 25.9 µM)	2 µg/mL (≈ 6.48 µM)
O=S1(=O)N=C2C(=COc3ccc(Cl)cc32)C2ON21 (stereo not drawn) [II-6c]	4 µg/mL (≈ 14.1 µM)	4 µg/mL (≈ 14.1 µM)	1 µg/mL (≈ 3.51 µM)	4 µg/mL (≈ 14.1 µM)	1 µg/mL (≈ 3.51 µM)
O=[N+]([O-])c1cc(Cl)cc2c1OS(=O)(=O)N=C2 [I-1i]	4 µg/mL (≈ 15.2 µM)	4 µg/mL (≈ 15.2 µM)	1 µg/mL (≈ 3.81 µM)	4 µg/mL (≈ 15.2 µM)	1 µg/mL (≈ 3.81 µM)
O=S1(=O)N=Cc2cc(F)ccc2O1 [I-1a]	4 µg/mL (≈ 19.9 µM)	4 µg/mL (≈ 19.9 µM)	1 µg/mL (≈ 4.97 µM)	4 µg/mL (≈ 19.9 µM)	1 µg/mL (≈ 4.97 µM)
O=S1(=O)N=Cc2nccn21 [I-5a]	8 µg/mL (≈ 50.9 µM)	8 µg/mL (≈ 50.9 µM)	2 µg/mL (≈ 12.7 µM)	8 µg/mL (≈ 50.9 µM)	2 µg/mL (≈ 12.7 µM)
O=S1(=O)Oc2ccc(Cl)cc2C2ON21 (stereo not drawn) [II-1b]	4 µg/mL (≈ 17.1 µM)	4 µg/mL (≈ 17.1 µM)	1 µg/mL (≈ 4.28 µM)	4 µg/mL (≈ 17.1 µM)	1 µg/mL (≈ 4.28 µM)
O=S1(=O)N=CC(CCc2ccc(Cl)cc2)=N1 [I-4d]	8 µg/mL (≈ 31.2 µM)	8 µg/mL (≈ 31.2 µM)	2 µg/mL (≈ 7.79 µM)	8 µg/mL (≈ 31.2 µM)	2 µg/mL (≈ 7.79 µM)
CC1=CC2(C)ON2S(=O)(=O)N1 (stereo not drawn) [II-2b]	16 µg/mL (≈ 90.8 µM)	16 µg/mL (≈ 90.8 µM)	2 µg/mL (≈ 11.4 µM)	16 µg/mL (≈ 90.8 µM)	2 µg/mL (≈ 11.4 µM)
CC1=C(C)C(c2ccccc2)=NS(=O)(=O)N1 [I-2d]	8 µg/mL (≈ 33.9 µM)	8 µg/mL (≈ 33.9 µM)	2 µg/mL (≈ 8.46 µM)	8 µg/mL (≈ 33.9 µM)	2 µg/mL (≈ 8.46 µM)
O=S1(=O)N=C2C(=COc3ccccc32)C2ON21 (stereo not drawn) [II-6a]	4 µg/mL (≈ 16 µM)	4 µg/mL (≈ 16 µM)	1 µg/mL (≈ 4 µM)	4 µg/mL (≈ 16 µM)	1 µg/mL (≈ 4 µM)
O=S1(=O)OCC2(c3ccc(Cl)cc3)ON21 (stereo not drawn) [II-3d]	8 µg/mL (≈ 32.3 µM)	8 µg/mL (≈ 32.3 µM)	2 µg/mL (≈ 8.08 µM)	8 µg/mL (≈ 32.3 µM)	2 µg/mL (≈ 8.08 µM)
O=[N+]([O-])c1ccc2c(c1)C=NS(=O)(=O)O2 [I-1e]	4 µg/mL (≈ 17.5 µM)	4 µg/mL (≈ 17.5 µM)	1 µg/mL (≈ 4.38 µM)	4 µg/mL (≈ 17.5 µM)	1 µg/mL (≈ 4.38 µM)
CC1=NS(=O)(=O)OC1C (stereo not drawn) [I-3a]	4 µg/mL (≈ 26.8 µM)	4 µg/mL (≈ 26.8 µM)	2 µg/mL (≈ 13.4 µM)	4 µg/mL (≈ 26.8 µM)	2 µg/mL (≈ 13.4 µM)
CC1=NS(=O)(=O)N2OC12C (stereo not drawn) [II-4b]	16 µg/mL (≈ 98.7 µM)	16 µg/mL (≈ 98.7 µM)	4 µg/mL (≈ 24.7 µM)	16 µg/mL (≈ 98.7 µM)	4 µg/mL (≈ 24.7 µM)
COc1ccc2c(c1)C1ON1S(=O)(=O)O2 (stereo not drawn) [II-1d]	8 µg/mL (≈ 34.9 µM)	8 µg/mL (≈ 34.9 µM)	2 µg/mL (≈ 8.73 µM)	8 µg/mL (≈ 34.9 µM)	2 µg/mL (≈ 8.73 µM)
CC1OS(=O)(=O)N2OC12C (stereo not drawn) [II-3a]	4 µg/mL (≈ 24.2 µM)	4 µg/mL (≈ 24.2 µM)	2 µg/mL (≈ 12.1 µM)	4 µg/mL (≈ 24.2 µM)	2 µg/mL (≈ 12.1 µM)
CCC1OS(=O)(=O)N2OC12CC (stereo not drawn) [II-3b]	4 µg/mL (≈ 20.7 µM)	4 µg/mL (≈ 20.7 µM)	2 µg/mL (≈ 10.4 µM)	4 µg/mL (≈ 20.7 µM)	2 µg/mL (≈ 10.4 µM)
